Measured values reported in ChEMBL document CHEMBL1201862, “PubChem BioAssay data set” (2004).
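96-well plates; 48 h exposure; 5 concentrations. Endpoints by linear interpolation between flanking doses. Not reached: highest tested concentration assigned. GI50 is the concentration that inhibits growth by half.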 Activity calls are given as the source filed them. No stated cut-off is given here; in the data, active = GI50 up to about 1.1 µM and inactive = higher.

Tests used:
Experiment in all cases: NCI anticancer screen, dose series, 48 h
ACHN = system: ACHN
CCRF-CEM = system: CCRF-CEM
HCT-116 = system: HCT-116
HT-29 = system: HT-29
K562 = system: K562
KM12 = system: KM12
M14 = system: M14
OVCAR-3 = system: OVCAR-3
RPMI-8226 = system: RPMI-8226
RXF 393 = system: RXF 393
SK-MEL-28 = system: SK-MEL-28
SK-MEL-2 = system: SK-MEL-2
SN12C = system: SN12C
TK-10 = system: TK-10

Measured: GI50

COc1ccc2c([nH]c3c(O)c(-c4c(C)cc5c([nH]c6c(CC=C(C)C)c(OC)ccc65)c4O)c(C)cc32)c1CC=C(C)C [BISMURRAYAFOLINE B]
inactive: ACHN > 100 µM | CCRF-CEM > 100 µM | HCT-116 > 100 µM | HT-29 > 100 µM | K562 > 100 µM | KM12 > 100 µM | M14 > 100 µM | OVCAR-3 > 100 µM | RPMI-8226 > 100 µM | RXF 393 > 100 µM | SK-MEL-28 > 100 µM | SK-MEL-2 > 100 µM | SN12C > 100 µM | TK-10 > 100 µM

O=C1C=C(Nc2ccccc2C(=O)CC(=O)C(=O)Nc2ccc(Cl)c(Cl)c2)c2ccccc2C1=O
inactive: ACHN 73.5 µM | CCRF-CEM 4.76 µM | HCT-116 > 10 µM | HT-29 > 100 µM | K562 12.2 µM | KM12 59.6 µM | M14 32.1 µM | OVCAR-3 34.4 µM | RPMI-8226 35.6 µM | RXF 393 71.3 µM | SK-MEL-28 10.6 µM | SK-MEL-2 30.6 µM | SN12C 35.1 µM

CCC1=NC(CO)[C@H](c2ccccc2)O1 (some centres not stated)
inactive: ACHN > 100 µM | HCT-116 > 100 µM | HT-29 > 100 µM | K562 > 100 µM | KM12 > 100 µM | OVCAR-3 > 100 µM | RPMI-8226 > 100 µM | RXF 393 > 100 µM | SK-MEL-28 > 100 µM | SK-MEL-2 > 100 µM | SN12C > 100 µM | TK-10 > 100 µM

Oc1cc(-c2c[nH]c3ccccc23)nc2cc3c(cc12)OCO3
inactive: ACHN > 100 µM | CCRF-CEM > 100 µM | HCT-116 > 100 µM | HT-29 > 100 µM | K562 > 100 µM | M14 > 100 µM | OVCAR-3 8.61 µM | RPMI-8226 > 100 µM | RXF 393 > 100 µM | SK-MEL-28 > 100 µM | SK-MEL-2 > 100 µM | SN12C > 100 µM | TK-10 > 100 µM

CC(C)(C)C1CCC2(CC1)c1[nH]c3ccccc3c1C1(CCC(C(C)(C)C)CC1)c1[nH]c3ccccc3c12 (configuration not stated)
inactive: ACHN > 100 µM | CCRF-CEM > 100 µM | HCT-116 41.6 µM | HT-29 > 100 µM | K562 > 100 µM | KM12 > 100 µM | M14 > 100 µM | RPMI-8226 > 100 µM | RXF 393 > 100 µM | SK-MEL-28 > 100 µM | SK-MEL-2 > 100 µM | SN12C > 100 µM | TK-10 > 100 µM

C1=CC=C2NCCOCC/N=C3/C=CC=CC=C3NCCOCC/N=C\2C=C1
inactive: ACHN > 100 µM | CCRF-CEM 40 µM | HCT-116 28.4 µM | HT-29 15.7 µM | K562 31.4 µM | KM12 66.2 µM | M14 17.8 µM | OVCAR-3 > 100 µM | RPMI-8226 45.7 µM | SK-MEL-28 86.5 µM | SK-MEL-2 69 µM | SN12C 77.6 µM | TK-10 > 100 µM

O=C(O)CP(=S)(S)c1ccccc1 (configuration not stated)
inactive: ACHN > 100 µM | CCRF-CEM > 100 µM | HT-29 > 100 µM | K562 > 100 µM | KM12 > 100 µM | M14 > 100 µM | RXF 393 > 100 µM | SK-MEL-28 > 100 µM | SK-MEL-2 > 100 µM | SN12C > 100 µM | TK-10 > 100 µM

CC1CC(c2ccc([N+](=O)[O-])cc2)=Nc2ccccc2S1 (configuration not stated)
inactive: ACHN 19.7 µM | CCRF-CEM 4.32 µM | HCT-116 1.75 µM | HT-29 13.4 µM | K562 6.04 µM | KM12 12.6 µM | M14 14.2 µM | OVCAR-3 11.5 µM | RPMI-8226 2.3 µM | RXF 393 17.5 µM | SK-MEL-28 17.9 µM | SN12C 18.2 µM | TK-10 28.2 µM

CCCCCCCCCCCC(=O)OCC1OC(n2cc(F)c(=O)[nH]c2=O)C(N)C(O)C1O (configuration not stated)
inactive: ACHN > 100 µM | CCRF-CEM 31.2 µM | HCT-116 88.1 µM | HT-29 55.3 µM | K562 32.2 µM | KM12 77.4 µM | M14 > 100 µM | OVCAR-3 > 100 µM | RPMI-8226 > 100 µM | RXF 393 > 100 µM | SK-MEL-28 > 100 µM | SK-MEL-2 > 100 µM | SN12C > 100 µM

COC(=O)C1=C(c2ccc(OC)c(OC)c2)OC(c2cc(OC)c(OC)c(OC)c2)C1 (configuration not stated)
inactive: ACHN 36.4 µM | CCRF-CEM > 100 µM | HT-29 > 100 µM | K562 > 100 µM | KM12 33.1 µM | M14 65.6 µM | OVCAR-3 38.1 µM | RPMI-8226 > 100 µM | RXF 393 22.1 µM | SK-MEL-28 > 100 µM | SK-MEL-2 20.1 µM | SN12C 34.3 µM | TK-10 39.2 µM

O=C1C2Cc3ccccc3CN2C(=O)N1CN1CCN(CN2C(=O)C3Cc4ccccc4CN3C2=O)CC1 (configuration not stated)
inactive: ACHN > 100 µM | CCRF-CEM > 100 µM | HT-29 > 100 µM | K562 > 100 µM | KM12 > 100 µM | OVCAR-3 > 100 µM | RPMI-8226 > 100 µM | RXF 393 > 100 µM | SK-MEL-28 > 100 µM | SK-MEL-2 > 100 µM | SN12C > 100 µM | TK-10 > 100 µM

Cc1ccc(NS(=O)(=O)c2cc(C(C)(C)C)ccc2OCCOCCOCCOc2ccc(C(C)(C)C)cc2S(=O)(=O)Nc2ccc(C)cc2)cc1
inactive: ACHN > 100 µM | CCRF-CEM > 100 µM | HCT-116 > 100 µM | HT-29 > 100 µM | K562 > 100 µM | KM12 > 100 µM | M14 > 100 µM | OVCAR-3 > 100 µM | RXF 393 > 100 µM | SK-MEL-28 > 100 µM | SK-MEL-2 > 100 µM | SN12C > 100 µM | TK-10 > 100 µM

O=c1ccn(C2(CO)C=C(CO)C(O)C2O)c(=O)[nH]1 (configuration not stated)
inactive: ACHN > 25.7 µM | HCT-116 > 25.7 µM | K562 > 25.7 µM | KM12 > 25.7 µM | M14 > 25.7 µM | OVCAR-3 > 25.7 µM | RPMI-8226 > 25.7 µM | RXF 393 > 25.7 µM | SK-MEL-28 > 25.7 µM | SK-MEL-2 > 25.7 µM | SN12C > 25.7 µM | TK-10 > 25.7 µM

CCOC(=O)C1=C(C)N(NC(=O)c2ccccc2)C2(O)CCCC12C(=O)OCC (configuration not stated)
inactive: ACHN > 100 µM | HCT-116 > 100 µM | HT-29 > 100 µM | K562 > 100 µM | KM12 > 100 µM | M14 > 100 µM | OVCAR-3 > 100 µM | RPMI-8226 > 100 µM | RXF 393 > 100 µM | SK-MEL-28 > 100 µM | SK-MEL-2 > 100 µM | SN12C > 100 µM

COC(=O)C1=C(C)N(NC(N)=O)C2(N)N(NC(N)=O)C(C)=C(C(=O)OC)C12C#N (configuration not stated)
inactive: ACHN > 100 µM | CCRF-CEM > 100 µM | HCT-116 > 100 µM | HT-29 > 100 µM | K562 > 100 µM | KM12 > 100 µM | M14 > 100 µM | OVCAR-3 > 100 µM | RPMI-8226 > 100 µM | SK-MEL-28 > 100 µM | SK-MEL-2 > 100 µM | SN12C > 100 µM | TK-10 > 100 µM

CCOC(=O)C(NC(=O)c1nc[nH]c1/N=N/N(C)C)C(C)C (configuration not stated)
inactive: ACHN > 100 µM | CCRF-CEM > 100 µM | HCT-116 > 100 µM | HT-29 > 100 µM | K562 > 100 µM | KM12 > 100 µM | M14 > 100 µM | OVCAR-3 > 100 µM | RPMI-8226 > 100 µM | SK-MEL-28 > 100 µM | SK-MEL-2 > 100 µM | SN12C > 100 µM | TK-10 > 100 µM

CON1C(=O)C2(CCCCC2)C(=O)C12C=CC(C)CC2 (configuration not stated)
inactive: CCRF-CEM > 100 µM | HT-29 62.5 µM | K562 85.5 µM | KM12 > 100 µM | M14 > 100 µM | OVCAR-3 > 100 µM | RPMI-8226 72.3 µM | RXF 393 30.7 µM | SK-MEL-28 > 100 µM | SK-MEL-2 > 100 µM | SN12C > 100 µM | TK-10 > 100 µM

COc1ccc(S(=O)(=O)N/N=C/c2cc(I)cc([N+](=O)[O-])c2O)cc1OC
inactive: ACHN 30.4 µM | CCRF-CEM 34.4 µM | HT-29 46.3 µM | K562 35.2 µM | KM12 31.3 µM | M14 36.1 µM | OVCAR-3 24.5 µM | RPMI-8226 24 µM | SK-MEL-2 22.5 µM | SN12C 32.8 µM | TK-10 62.1 µM

CN(C)C(=C1C(Br)=C(Br)C(Br)=C1Br)N(C)C
inactive: ACHN > 100 µM | CCRF-CEM 26.3 µM | HT-29 > 100 µM | K562 30.4 µM | KM12 > 100 µM | M14 > 100 µM | OVCAR-3 > 100 µM | RPMI-8226 22.7 µM | RXF 393 > 100 µM | SK-MEL-28 > 100 µM | SK-MEL-2 > 100 µM | SN12C > 100 µM | TK-10 > 100 µM

CC1=NN(C(=O)Cc2ccccc2)C(=O)/C1=C\C=C\c1ccccc1
inactive: ACHN > 100 µM | CCRF-CEM > 100 µM | HCT-116 > 100 µM | HT-29 > 100 µM | K562 > 100 µM | KM12 > 100 µM | M14 > 100 µM | OVCAR-3 > 100 µM | RPMI-8226 > 100 µM | SK-MEL-28 > 100 µM | SK-MEL-2 > 100 µM | SN12C > 100 µM | TK-10 > 100 µM
